This note sets out measurements from patent US12370155B2, “Anticancer composition” (NOAHM INC., priority 2018, dated 2025).

SMILES strings stand for the structures. Structures can show the parent of a compound that is named as a salt.

What all share (type): in vivo, BALB/c nude mice
The subject of experiment [1] is 4T1 cells, breast cancer cells. The experiment is described as follows: Incidence of lung metastasis in 4T1 tumor animal model. The conditions noted are these: 10 animals per group; intraperitoneal; control 100%. As for the experimental part:
(§1) Five-week-old, female specific pathogen free BALB/c nude mice were purchased and used from Orient Bio Co., Ltd. After quarantine and adaptation for one week, healthy animals without weight loss were selected and used in the test. The test animals were raised in a breeding environment set at a temperature of 23±3° C., a relative humidity of 50±10%, the ventilation number of 10 to 15 times/hour, lighting time of 12 hours (08:00 to 20:00), and illuminance of 150 to 300 Lux. During a pre-test period, the test animals were allowed to freely consume solid feed for the test animals (Cargill Agripurina Co., Ltd.) and drinking water.
(§2) After an adaptation period for one week, in BALB/c nude mice, 4T1 cells (1×10 ^5 cells/mouse), breast cancer cells, were injected to the left breast adipose tissues of the test animals, and then the tumor tissues were visually observed. When the tumor tissue size of the test animals was about 100 mm ^3, the test animals were divided into 9 test groups based on a randomized block design. That is, the 9 test groups were classified into a control group, a MET group (MET 250 mg/kg), a 2DG group (2DG 500 mg/kg), an Ins group (Ins 500 mg/kg), a IP6 group (IP6 500 mg/kg), a MET+2DG group (MET 250 mg/kg+2DG 500 mg/kg), a MET+2DG+Ins group (MET 250 mg/kg+2DG 500 mg/kg+Ins 500 mg/kg), a MET+2DG+IP6 group (MET 250 mg/kg+2DG 500 mg/kg+IP6 500 mg/kg), a MET+2DG+IP6+Ins group (MET 250 mg/kg+2DG 500 mg/kg+IP6 250 mg/kg+Ins 250 mg/kg), and each test group used 10 test animals. The test substance was dissolved in distilled water and intraperitoneally administered at fixed time for 18 days.
After 14 days of administration of the test substance, the test animals were anesthetized using an anesthetic made by diluting tribromoethanol with tert-amyl alcohol and the blood was collected from the orbit. The blood was placed in a serum separate tube (Becton Dickinson) and left at room temperature for 30 minutes and centrifuged at 3,000 rpm for 20 minutes to isolate serum and the isolated serum was stored at −70° C. until analysis. After taking the blood from the test animals, the tumor was extracted and weighed. Tumors were weighed and some were fixed in 10% neutral buffered formalin (NBF, Sigma-Aldrich Co.) and embedded in paraffin to perform tissue immunostaining. The lung was fixed with a Bouin's solution (Sigma-Aldrich Co.), and the tumor nodule metastasized to the lung was observed and a lung metastasis rate was examined.

The test system of experiment [2] is 4T1 cells, breast cancer cells. The experiment is described as follows: Tumor volume in 4T1 tumor-bearing mice. To be noted: day 18 of administration; intraperitoneal; MET 250, 2DG 500, IP6 500, Ins 500 mg/kg (four-combination: IP6 250 + Ins 250 mg/kg); control 1486.8±67.0; mean±SD. As for the experimental part: as §1, §2
The body weight of the test animal during the test period was measured at a fixed time once a week from the test substance administration date. A tumor volume was measured by using a digital caliper every three days, the length and width of the tumor were measured, and the tumor volume was calculated by substituting the following Equation. Tumor volume (mm^3)=(width^2×length)/2

For experiment [3], the system named is 4T1 cells, breast cancer cells. The experiment is described as follows: Tumor weight in 4T1 tumor-bearing mice. The conditions noted are these: day 19 of administration; intraperitoneal; MET 250, 2DG 500, IP6 500, Ins 500 mg/kg (four-combination: IP6 250 + Ins 250 mg/kg); control 1.244±0.22; mean±SD. The protocol:
as §1, §2
[…] The blood was placed in a serum separate tube (Becton Dickinson) and left at room temperature for 30 minutes and centrifuged at 3,000 rpm for 20 minutes to isolate serum and the isolated serum was stored at −70° C. until analysis. […] Tumors were weighed and some were fixed in 10% neutral buffered formalin (NBF, Sigma-Aldrich Co.) and embedded in paraffin to perform tissue immunostaining. The lung was fixed with a Bouin's solution (Sigma-Aldrich Co.), and the tumor nodule metastasized to the lung was observed and a lung metastasis rate was examined.

With `OCC1O[C@H](O)C[C@@H](O)[C@@H]1O` (mixture of isomers) [2DG, 2-deoxy-D-glucose], the “incidence of lung metastasis” value in experiment [1] is listed as 100%. Further, the tumor volume in experiment [2] was determined as 1350.3±55.2 mm^3. The tumor weight in experiment [3] was 1.092 ± 0.18 g.
For `O=P(O)(O)O[C@H]1[C@H](OP(=O)(O)O)[C@@H](OP(=O)(O)O)[C@H](OP(=O)(O)O)[C@@H](OP(=O)(O)O)[C@H]1OP(=O)(O)O` [IP6, inositol hexaphosphate], the “incidence of lung metastasis” value in experiment [1] turned out to be 90%. Further, the tumor volume in experiment [2] was 1108.5±66.3 mm^3. Besides, the tumor weight in experiment [3] stood at 0.874 ± 0.18 g.
Consider `O[C@H]1[C@H](O)[C@@H](O)[C@H](O)[C@@H](O)[C@H]1O` [Ins, myo-inositol], for which, in experiment [1], the “incidence of lung metastasis” value turned out to be 90%. Also, the tumor volume in experiment [2] was 1190.1±67.3 mm^3. The tumor weight in experiment [3] is 0.904 ± 0.20 g.
For `CN(C)C(=N)NC(=N)N` [MET, Metformin HCl], in that order: 100%, 1400.5±58.6 mm^3 and 1.134 ± 0.15 g.
